# Molecular target: human LPAR1 (Homo sapiens (Human), UniProt Q92633)
# Assay: LPAR1 intracellular calcium mobilization assay (antagonist mode, FLIPR)
# Type: cell-based
# Conditions: CHO-K1 EDG2 cells expressing human LPAR1, LPA 18:2 at EC80 (100 nM), test compound 0.5 nM to 10 μM
# human LPAR1, sequence (Q92633 whole entry): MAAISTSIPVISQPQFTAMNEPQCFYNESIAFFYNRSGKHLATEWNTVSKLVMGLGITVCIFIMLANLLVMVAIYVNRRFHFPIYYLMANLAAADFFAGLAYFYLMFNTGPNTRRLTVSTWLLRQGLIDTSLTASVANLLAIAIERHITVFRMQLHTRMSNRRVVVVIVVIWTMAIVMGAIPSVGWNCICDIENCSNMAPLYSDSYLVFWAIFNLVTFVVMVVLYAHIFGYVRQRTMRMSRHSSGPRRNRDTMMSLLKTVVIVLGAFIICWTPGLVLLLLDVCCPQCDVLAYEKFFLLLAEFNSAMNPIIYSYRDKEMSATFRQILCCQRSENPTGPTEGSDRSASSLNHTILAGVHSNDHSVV
row,SMILES,EC50
1,"C[C@@H](OC(=O)Nc1c(-c2ccc(NC(=O)C3(F)CC3)cn2)nnn1C)c1cccnc1Cl [Compound 60, (R)-1-(2-chloropyridin-3-yl)ethyl (4-(5-(1-fluorocyclopropane-1-carboxamido)pyridin-2-yl)-1-methyl-1H-1,2,3-triazol-5-yl)carbamate]",140 nM
2,"CC(=O)Nc1ccc(-c2nnn(C)c2NC(=O)O[C@H](C)c2cc(Cl)cnc2F)nc1 [Compound 14, (R)-1-(5-chloro-2-fluoropyridin-3-yl)ethyl (4-(5-acetamidopyridin-2-yl)-1-methyl-1H-1,2,3-triazol-5-yl)carbamate]",1200 nM
3,"C[C@@H](OC(=O)Nc1c(-c2ccc(NC(=O)[C@H]3C[C@H]3F)cn2)nnn1C)c1cccnc1Cl [Compound 56, (R)-1-(2-chloropyridin-3-yl)ethyl (4-(5-((1R,2R)-2-fluorocyclopropane-1-carboxamido)pyridin-2-yl)-1-methyl-1H-1,2,3-triazol-5-yl)carbamate]",1140 nM
4,"C[C@@H](OC(=O)Nc1c(-c2ccc(NC(=O)[C@H]3C[C@@]4(CC4(F)F)C3)cn2)nnn1C)c1cccnc1Cl [Compound 85, (R)-1-(2-chloropyridin-3-yl)ethyl (4-(5-((3R,5r)-1,1-difluorospiro[2.3]hexane-5-carboxamido)pyridin-2-yl)-1-methyl-1H-1,2,3-triazol-5-yl)carbamate]",11.2 nM
5,"C[C@@H](OC(=O)Nc1c(-c2ccc(NC(=O)C3(CN)CC(F)(F)C3)cn2)nnn1C)c1cc(F)cnc1Cl [Compound 304, (R)-1-(2-chloro-5-fluoropyridin-3-yl)ethyl (4-(5-(1-(aminomethyl)-3,3-difluorocyclobutane-1-carboxamido)pyridin-2-yl)-1-methyl-1H-1,2,3-triazol-5-yl)carbamate]",46.4 nM
6,"C[C@H](C#N)C(=O)Nc1ccc(-c2nnn(C)c2NC(=O)O[C@H](C)c2cccnc2Cl)nc1 [Compound 203, (R)-1-(2-chloropyridin-3-yl)ethyl (4-(5-((R)-2-cyanopropanamido)pyridin-2-yl)-1-methyl-1H-1,2,3-triazol-5-yl)carbamate]",94.8 nM
7,"C[C@@H](OC(=O)Nc1c(-c2cnc(NC(=O)c3ccc(C(F)F)nc3)cn2)nnn1C)c1cc(F)cnc1F [Compound 321, (R)-1-(2,5-difluoropyridin-3-yl)ethyl (4-(5-(6-(difluoromethyl)nicotinamido)pyrazin-2-yl)-1-methyl-1H-1,2,3-triazol-5-yl)carbamate]",309 nM
8,"C[C@@H](OC(=O)Nc1c(-c2ccc(NC(=O)C(F)(F)F)cc2)nnn1C)c1cccc(F)c1 [Compound 1, (R)-1-(3-fluorophenyl)ethyl (1-methyl-4-(4-(2,2,2-trifluoroacetamido)phenyl)-1H-1,2,3-triazol-5-yl)carbamate]",6520 nM
9,"C[C@@H](OC(=O)Nc1c(-c2ccc(NC(=O)c3cnc(C(F)F)nc3)cn2)nnn1C)c1cccnc1Cl [Compound 206, (R)-1-(2-chloropyridin-3-yl)ethyl (4-(5-(2-(difluoromethyl)pyrimidine-5-carboxamido)pyridin-2-yl)-1-methyl-1H-1,2,3-triazol-5-yl)carbamate]",71.8 nM
10,"COc1cc(C(=O)Nc2ccc(-c3nnn(C)c3NC(=O)O[C@H](C)c3cc(F)cnc3F)nc2)on1 [Compound 281, (R)-1-(2,5-difluoropyridin-3-yl)ethyl (4-(5-(3-methoxyisoxazole-5-carboxamido)pyridin-2-yl)-1-methyl-1H-1,2,3-triazol-5-yl)carbamate]",86.6 nM
11,"Cc1cnc(F)cc1C(C)OC(=O)Nc1c(-c2ccc(NC(=O)C3CC(F)(F)C3)cn2)nnn1C (centres unmarked) [Compound 26, 1-(2-fluoro-5-methylpyridin-4-yl)ethyl (4-(5-(3,3-difluorocyclobutane-1-carboxamido)pyridin-2-yl)-1-methyl-1H-1,2,3-triazol-5-yl)carbamate]",587 nM

# — patent US11912686B2 (Gilead Sciences, Inc., priority 2020, dated 2024)
